The source of these data is publication PMC6418270, “The pharmacological and functional characterization of the serotonergic system in Anopheles gambiae and Aedes aegypti: influences on flight and blood-feeding behavior” (Scientific Reports, 2019).

Counter-ions that a name gives are not always drawn.

In general, IC50 refers to the point on the concentration scale where inhibition reaches its midpoint.

The test system of one assay is An. gambiae. To be noted: cited from earlier work.
Assay [1] has as its system Ae. aegypti. Description: Flight performance in flight cylinder after microinjection. The conditions noted are these: for Distance average in flight cylinder: Fig. 5d; for Average distance dropped before landing on flight cylinder: Fig. 5b. The class given is in vivo, Aedes aegypti. The method, then: (§1) Stock solutions of the compounds were diluted to the appropriate concentrations in 1X phosphate buffer solution (PBS). To account for potential solvent effects, an ultrapure H2O control group was included in every independent experiment. Female mosquitoes were either cold- or CO2-anesthetized. A Nanoject II Auto-Nanoliter Injector (Drummond Scientific Company, Broomall, PA) was then utilized to microinject 69 nL of compound into the spiracle.
A flight cylinder was assembled as described previously. The polyacrylamide sheet was coated with Tangle-Trap Sticky Coating (The Scotts Company LLC, Marysville, OH) and allowed to sit overnight before insertion into the flight cylinder. Adult mosquitoes were anesthetized on a CO2 pad and microinjected with the compound or ultrapure H2O control. Post-injection, they were permitted to recover in a fly vial for 30 minutes before being ejected into the flight cylinder. After each trial, the distance between the top of the cylinder and the trapped mosquito was recorded. Mosquitoes captured in the fly vial at the bottom of the cylinder were considered to be incapable of flying and a distance of 91.5 cm was recorded.
(§2) Luminescence and calcium assay data were normalized and fitted with a non-linear least squares regression to generate dose-response curves, EC50 and IC50 values. Unpaired t-tests or Dunnett’s multiple comparisons test were performed accordingly to compare EC50 or IC50 values. Locomotion was measured based on the distance required for flight recovery. Data were compared with the Kruskal-Wallis and Dunnett’s multiple comparison tests after the Kolmogorov-Smirnov normality test was conducted. In the blood-feeding experiments, the percentage of blood-fed mosquitoes was calculated for each treatment group. For each biological replicate, the treatment groups were normalized with respect to the untreated group. Dunnett’s multiple comparison tests were utilized to determine statistical difference between normalized data. Size of bloodmeals were compared with an unpaired t-test or Mann-Whitney test after normality was evaluated with the Kolmogorov-Smirnov test. All analyses were performed utilizing GraphPad Prism version 7.00 for Mac OS X, GraphPad Software, La Jolla California USA, www.graphpad.com.

The subject of assay [2] is Ae. aegypti. Nature of the assay: Blood-feeding assay (artificial membrane feeder) after microinjection. To be noted: 1 mM microinjected. The class given is in vivo, Aedes aegypti. The method, then: as §1
Seven to ten-day old female mosquitoes were treated with compound or appropriate control through microinjection post cold-anesthetization or ingestion. Two mL of human O^+ blood (BioChemed Services, Winchester, VA) was utilized to cover the concave surface of an inverted baby food jar. Hog intestine sealed the opening to simulate the puncturing of a host’s skin. The feeding membrane was placed on the top of a mosquito cage, and hot water was poured into the jar to warm the blood. After a 45-minute feed, the mosquitoes were immediately preserved at −20 °C. The blood meal size was determined for each mosquito via hemoglobinometry as previously described.
as §2

A further assay relates to D. melanogaster. Further details: method as in PMID 26989517, PMID 24586928. The conditions noted are these: larval and adult; cited from earlier work.
The next assay addresses AGAP002229 (Anopheles gambiae, UniProt A7UR33). Nature of the assay: Fluo-4 calcium assay in CRE-luc2P HEK-293 cells expressing AGAP002229. The class given is cell-based. To be noted: antagonist test; receptor not given, taken as both 5-HT2 cell lines. The method, then: A week post-transfection, selective pressure was applied with […] of G418 antibiotic to generate stable lines.
1 × 10^6 cells per well were seeded into a 96-well black all-clear bottom plate and incubated overnight in 10% FBS/90% DMEM at 37 °C with an atmosphere of 5% CO2. The following day, 2X Fluo-4 Direct calcium dye (Molecular Devices LLC, San Jose, CA) was added to each well and incubated in the same conditions for 45 minutes before the assay was completed. At this time, serial dilutions of the test compounds were prepared in a 96-well clear flat bottom plate. […] Fluorescence measurements continued to be recorded for a total of 120 seconds at 2-second intervals. When testing antagonists, cells were treated with the compound prior to determination of fluorescence levels.
as §2

A further assay addresses AGAP002232 (Anopheles gambiae, UniProt A0A1S4GEY1). Description: Fluo-4 calcium assay in CRE-luc2P HEK-293 cells expressing AGAP002232. The format is cell-based. The method, then: The GloResponse™ CRE-luc2P human embryonic kidney (HEK-293) reporter cells were incubated at 37 °C with an atmosphere of 5% CO2, and maintained in Dulbecco’s Modified Eagle Medium (DMEM) supplemented with 10% fetal bovine serum (FBS) and […] hygromycin B. Transfection of the HEK-293 cells with 1 μg of plasmid DNA was performed with Amaxa Nucleofector™ technology (Lonza, Basel, Switzerland) as per manufacturer’s instructions. A week post-transfection, selective pressure was applied with […] of G418 antibiotic to generate stable lines.
1 × 10^6 cells per well were seeded into a 96-well black all-clear bottom plate and incubated overnight in 10% FBS/90% DMEM at 37 °C with an atmosphere of 5% CO2. The following day, 2X Fluo-4 Direct calcium dye (Molecular Devices LLC, San Jose, CA) was added to each well and incubated in the same conditions for 45 minutes before the assay was completed. At this time, serial dilutions of the test compounds were prepared in a 96-well clear flat bottom plate. Fluorescence levels were determined with a FlexStation3 microplate reader, with excitation and emission wavelengths set to 485 and 525 nm, respectively (Molecular Devices LLC). Basal fluorescence levels were measured for 17 seconds, at which time, 25 μl of the agonist compound was added. Fluorescence measurements continued to be recorded for a total of 120 seconds at 2-second intervals. When testing antagonists, cells were treated with the compound prior to determination of fluorescence levels.
as §2

In assay [3] the test system is octopamine receptor (AGAP000045). Description: Inhibition in HEK-293 cells expressing an octopamine receptor. The class given is cell-based, Anopheles gambiae.
For another assay, the system named is D. melanogaster larvae. Further details: method as in PMID 23817146. To be noted: cited from earlier work.
Assay [4] concerns D1-like dopamine receptors. To be noted: cited from earlier work.

AGAP002232, sequence (A0A1S4GEY1 entry or part of it): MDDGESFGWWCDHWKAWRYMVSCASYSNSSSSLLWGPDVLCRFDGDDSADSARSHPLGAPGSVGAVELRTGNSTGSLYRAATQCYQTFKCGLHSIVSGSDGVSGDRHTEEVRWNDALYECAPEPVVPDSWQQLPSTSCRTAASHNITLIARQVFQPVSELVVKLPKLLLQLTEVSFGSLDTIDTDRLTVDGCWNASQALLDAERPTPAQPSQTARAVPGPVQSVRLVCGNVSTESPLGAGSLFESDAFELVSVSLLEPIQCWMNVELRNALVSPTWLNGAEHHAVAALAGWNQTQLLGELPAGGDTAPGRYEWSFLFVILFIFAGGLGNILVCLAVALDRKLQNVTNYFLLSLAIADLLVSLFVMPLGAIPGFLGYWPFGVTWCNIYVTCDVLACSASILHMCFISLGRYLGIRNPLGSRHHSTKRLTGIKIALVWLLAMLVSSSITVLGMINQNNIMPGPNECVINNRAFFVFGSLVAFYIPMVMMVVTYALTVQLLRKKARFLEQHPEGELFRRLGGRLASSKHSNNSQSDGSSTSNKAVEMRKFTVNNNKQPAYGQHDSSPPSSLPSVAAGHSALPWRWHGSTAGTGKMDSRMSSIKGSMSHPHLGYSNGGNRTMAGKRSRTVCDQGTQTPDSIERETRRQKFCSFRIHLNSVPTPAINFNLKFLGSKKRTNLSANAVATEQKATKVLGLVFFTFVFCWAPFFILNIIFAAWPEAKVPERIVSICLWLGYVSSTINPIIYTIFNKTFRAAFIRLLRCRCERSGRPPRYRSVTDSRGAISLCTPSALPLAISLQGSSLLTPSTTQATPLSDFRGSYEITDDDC
AGAP002229, sequence (A7UR33 entry or part of it): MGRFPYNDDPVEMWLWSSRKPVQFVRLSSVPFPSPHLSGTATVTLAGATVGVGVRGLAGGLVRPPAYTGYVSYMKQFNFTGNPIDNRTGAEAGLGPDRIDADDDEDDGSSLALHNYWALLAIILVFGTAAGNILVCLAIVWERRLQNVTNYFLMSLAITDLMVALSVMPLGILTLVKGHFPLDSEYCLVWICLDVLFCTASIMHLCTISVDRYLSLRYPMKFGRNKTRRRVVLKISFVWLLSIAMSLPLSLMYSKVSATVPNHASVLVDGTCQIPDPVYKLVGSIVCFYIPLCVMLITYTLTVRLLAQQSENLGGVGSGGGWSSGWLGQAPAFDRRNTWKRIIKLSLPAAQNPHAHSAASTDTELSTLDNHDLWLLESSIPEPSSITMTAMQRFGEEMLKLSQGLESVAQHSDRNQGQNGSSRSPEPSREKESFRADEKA

For the compound `CN(C)CCCC1(c2ccc(F)cc2)OCc2cc(C#N)ccc21` (stereo not shown) [citalopram], the “Flight after microinjection into the thorax” value with An. gambiae is “severe flight defects and a prolonged time for flight recovery”.
Consider `CNCCC(Oc1ccc(C(F)(F)F)cc1)c1ccccc1` (stereo not shown) [fluoxetine, fluoxetine hydrochloride], for which the “Distance average in flight cylinder” value is recorded as 41.61 cm with Ae. aegypti [1] (2.5 mM) and 81.63 cm in the assay with Ae. aegypti [1] (4 mM). For the same compound, the “Successfully blood-fed, normalized to the untreated group” value in the assay with Ae. aegypti [2] is listed as “approximately 80%”. For the same compound, the Effect on locomotion entry with D. melanogaster was “repress locomotion”.
On to `CS(=O)(=O)O.CSc1ccc2c(c1)C(N1CCN(C)CC1)Cc1ccccc1S2` (stereo not shown) [methiothepin, methiothepin mesylate salt], for which the “Ability to inhibit activity in a dose-response manner” value on AGAP002229 is “exhibited the ability to inhibit activity in a dose-response manner”; at AGAP002232 (antagonist test, receptor not given, taken as both 5-HT2 cell lines), “exhibited the ability to inhibit activity in a dose-response manner”. Besides, the IC50 on AGAP002232 (read-out: IC50 (calcium response to 5-HT), AGAP002232 HEK-293 cells) is 0.56 nM. Further, the “Lowest concentration exhibiting inhibitory effects” value at AGAP002232 (receptor not given) was 10^−16 M. The “Inhibitory effect on octopamine receptor” value in [3] (10^−4 M) is on record as “marked inhibition”; in assay [3] (all other concentrations of the range 10^−10 to 10^−4 M), “did not elicit a similar result”. Further, the Successful flights in the assay with Ae. aegypti [1] (1 mM microinjected (69 nL)) stood at 92%; with Ae. aegypti [1] (1.5 mM microinjected (69 nL)), 84%; in the assay with Ae. aegypti [1] (2.5 mM microinjected (69 nL)), 61%. For the same compound, the “Average distance dropped before landing on flight cylinder” value in the assay with Ae. aegypti [1] (1 mM) is given as 22.77 cm; in the assay with Ae. aegypti [1] (1.5 mM) it was 33.04 cm; with Ae. aegypti [1] (2.5 mM), 49.27 cm. For the same compound, in the assay on Ae. aegypti [1] (1.5 mM, Fig. 5c), the “Average distance in flight cylinder” value turned out to be 41.38 cm. This compound came in with a Blood meal size with Ae. aegypti [2] of 2.25 µL. In addition, the “Successfully blood-fed, normalized to the untreated group” value with Ae. aegypti [2] amounted to 50.7%. Besides, the Effect on feeding result with D. melanogaster larvae is “anorectic agent”. Moreover, the “Inhibition of D1-like dopamine receptors” value in assay [4] is on record as “ability to inhibit D1-like dopamine receptors”.
